Where two headings read alike, the source gives them in different places.
Legend:
[1] = test system: STING pathway (IRF pathway reporter, THP1-Dual cells); assay: STING pathway activation, IRF pathway secreted luciferase (Lucia) reporter in THP1-Dual cells; type: cell-based; conditions: Quanti LUC luminescence, 24-hour and 48-hour plates prepared, duration not given, read-out: IRF3 (EC50 μM)
Experimental: (§1) STING pathway activation by the compounds described herein was measured using THP1-Dual™ cells. These cells are THP1 monocytes that have been modified to be reporters for the NF[…]B pathway (by inducing secreted embryonic alkaline phosphatase (SEAP) expression) and the IRF pathway (by inducing secreted luciferase (LUCIA)). Both of these pathways are activated by STING agonists in these cells.
(§2) THP1 Dual™ cells (obtained from Invivogen) are maintained in a cell growth medium that includes Roswell Park Memorial Institute medium (RPMI), 10% fetal calf serum (FCS), 100 U/ml Pen/Strep, 2 mM L-glut, 10 mM Hepes, and 1 mM sodium pyruvate. Prior to the assay, the cells were transferred to an assay medium that includes is RPMI, 5% FCS, 100 U/ml Pen/Strep, 2 mM L-glut, 10 mM Hepes, and 1 mM sodium pyruvate. Cells were then counted and evaluated for viability by trypan blue exclusion assay.
(§3) Compounds were dissolved in water or DMSO depending, for example, on their solubility in water or DMSO. The compounds are then diluted in the assay medium and plated into wells of a 384-well tissue culture plate in […] portions. Cells are then added in […] assay medium to result in a final cell concentration of 80,000 cells per well.
(§4) For each set of compounds, two plates were prepared: one plate that was subjected to a 24-hour assay duration, and one plate that was subjected to a 48-hour assay duration. The plates are incubated during their respective assay durations at 37° C., with 5% CO2.
(§5) To carry out the secreted embryonic alkaline phosphatase reporter, 10 µL of cell supernatant was mixed with 90 μL of QUANTI-Blue in a flat-bottom 384 well plate. The plates were incubated at 37′C for 1-2 hours. SEAP activity was measured using a spectrophotometer set at 620 nm. In the secreted luciferase (i.e., Lucia) assay, 10 µL of THP1-Blue™ WASG cell supernatant was plated, then 50 μL Quanti LUC Solution was added. Luminescence of the wells was then measured.

[2] = test system: STING pathway (NFκB pathway reporter, THP1-Dual cells); assay: STING pathway activation, NFκB pathway secreted embryonic alkaline phosphatase (SEAP) reporter in THP1-Dual cells; type: cell-based; conditions: QUANTI-Blue, 620 nm, 24-hour and 48-hour plates prepared, duration not given
Experimental: as §1, §2, §3, §4, §5

| Molecule | EC50 [1] | EC50 [2] | EC50 ([1]; Homo sapiens, THP1-Dual) | EC50 ([2]; Homo sapiens, THP1-Dual) | further results |
| --- | --- | --- | --- | --- | --- |
| Nc1ncnc2c1ncn2[C@@H]1O[C@@H]2COP(=O)(S)N[C@H]3[C@@H](O)[C@H](n4cnc5c(N)ncnc54)O[C@@H]3COP(=O)(S)N[C@H]2[C@H]1O (single isomer, unassigned) [Compound 74-0A1] | 1 to 10 µM | 1 to 10 µM |  |  |  |
| Nc1ncnc2c1ncn2[C@@H]1O[C@@H]2COP(=O)(S)N[C@H]3[C@@H](O)[C@H](n4cnc5c(N)ncnc54)O[C@@H]3COP(=O)(S)N[C@H]2[C@H]1O (single isomer, unassigned) [Compound 74-0A2] | 1 to 10 µM | < 1 µM |  |  |  |
| Nc1ncnc2c1ncn2[C@@H]1O[C@@H]2COP(=O)(S)N[C@H]3[C@@H](O)[C@H](n4cnc5c(N)ncnc54)O[C@@H]3COP(=O)(O)N[C@H]2[C@H]1O (single isomer, unassigned) [Compound 74-0B0] |  |  | 10 to 49 µM | 10 to 49 µM |  |
| Nc1ncnc2c1ncn2[C@@H]1O[C@@H]2COP(=O)(S)N[C@H]3[C@@H](O)[C@H](n4cnc5c(N)ncnc54)O[C@@H]3COP(=O)(S)N[C@H]2[C@H]1O (single isomer, unassigned) [Compound 74-0B1] | 10 to 49 µM | 50 to 100 µM |  |  |  |
| Nc1nc2c(ncn2[C@@H]2O[C@@H]3COP(=O)(S)N[C@H]4[C@@H](O)[C@H](n5cnc6c(=O)[nH]c(N)nc65)O[C@@H]4COP(=O)(O)N[C@H]3[C@H]2O)c(=O)[nH]1 (single isomer, unassigned) [Compound 76-0A1] |  |  | 10 to 49 µM | 1 to 10 µM |  |
| Nc1nc2c(ncn2[C@@H]2O[C@@H]3COP(=O)(S)N[C@H]4[C@@H](O)[C@H](n5cnc6c(=O)[nH]c(N)nc65)O[C@@H]4COP(=O)(S)N[C@H]3[C@H]2O)c(=O)[nH]1 (single isomer, unassigned) [Compound 76-0A2] | 10 to 49 µM | 10 to 49 µM |  |  |  |
| Nc1nc2c(ncn2[C@@H]2O[C@@H]3COP(=O)(S)N[C@H]4[C@@H](O)[C@H](n5cnc6c(=O)[nH]c(N)nc65)O[C@@H]4COP(=O)(S)N[C@H]3[C@H]2O)c(=O)[nH]1 (single isomer, unassigned) [Compound 76-0A3] | 1 to 10 µM | < 1 µM |  |  |  |
| Nc1nc2c(ncn2[C@@H]2O[C@@H]3COP(=O)(S)N[C@H]4[C@@H](O)[C@H](n5cnc6c(=O)[nH]c(N)nc65)O[C@@H]4COP(=O)(S)N[C@H]3[C@H]2O)c(=O)[nH]1 (single isomer, unassigned) [Compound 76-0B1] | 10 to 49 µM | 50 to 100 µM |  |  |  |
| Nc1ncnc2c1ncn2[C@@H]1O[C@@H]2COP(=O)(O)N[C@H]3[C@@H](O)[C@H](n4cnc5c(N)ncnc54)O[C@@H]3COP(=O)(O)N[C@H]2[C@H]1O [Compound 73, Diammonium (1S,6S,8R,9R,10S,15S,17R,18R)-8,17-bis(6-amino-9H-purin-9-yl)-9,18-dihydroxy-3,12-dioxo-4,7,13,16-tetraoxa-2,11-diaza-3λ^s,12λ^s-diphosphatricyclo[13.3.0.0^6,10]octadecane-3,12-bis(olate)] |  |  | 10 to 49 µM | 1 to 10 µM |  |
| Nc1nc2c(ncn2[C@@H]2O[C@@H]3COP(=O)(O)N[C@H]4[C@@H](O)[C@H](n5cnc6c(=O)[nH]c(N)nc65)O[C@@H]4COP(=O)(O)N[C@H]3[C@H]2O)c(=O)[nH]1 [Compound 75, Diammonium (1S,6S,8R,9R,10S,15S,17R,18R)-8,17-bis(2-amino-6-oxo-6,9-dihydro-1H-purin-9-yl)-9,18-dihydroxy-3,12-dioxo-4,7,13,16-tetraoxa-2,11-diaza-3λ^s,12λ^s-diphosphatricyclo[13.3.0.0^6,10]octadecane-3,12-bis(olate)] |  |  | 10 to 49 µM | 10 to 49 µM |  |
| Nc1ncnc2c1ncn2[C@@H]1O[C@@H]2CNP(=O)(S)O[C@H]3[C@@H](F)[C@H](n4cnc5c(N)ncnc54)O[C@@H]3CNP(=O)(S)O[C@H]2[C@H]1F (stereo partly drawn) [Compound 77, Diammonium [(1R,6R,8R,9R,10R,15R,17R,18R)-8,17-bis(6-amino-9H-purin-9-yl)-9,18-difluoro-3,12-dioxo-12-sulfanidyl-2,7,11,16-tetraoxa-4,13-diaza-3λ^s,12λ^s-diphosphatricyclo[13.3.0.0^6,10]octadecan-3-yl]sulfanide] |  |  |  |  | EC50 ([1]; Homo sapiens): 50 to 100 µM; EC50 ([2]; Homo sapiens): 50 to 100 µM |
| Nc1ncnc2c1ncn2[C@@H]1O[C@@H]2COP(=O)(O)N[C@H]3[C@@H](F)[C@H](n4cnc5c(N)ncnc54)O[C@@H]3COP(=O)(O)N[C@H]2[C@H]1F [Compound 78, Diammonium (1R,6S,8R,9R,10R,15S,17R,18R)-8,17-bis(6-amino-9H-purin-9-yl)-9,18-difluoro-3,12-dioxo-4,7,13,16-tetraoxa-2,11-diaza-3λ^s,12λ^s-diphosphatricyclo[13.3.0.0^6,10]octadecane-3,12-bis(olate)] |  |  | 50 to 100 µM | 50 to 100 µM |  |
| Diammonium [(1S,6S,8R,9R,10S,15S,17R,18R)-8-(2-amino-6-oxo-6,9-dihydro-1H-purin-9-yl)-17-(6-amino-9H-purin-9-yl)-9,18-dihydroxy-3,12-dioxo-12-sulfanidyl-4,7,13,16-tetraoxa-2,11-diaza-3λ^s,12λ^s-diphosphatricyclo[13.3.0.0^6,10]octadecan-3-yl]sulfanide [Compound 72-0A2] | 1 to 10 µM | 1 to 10 µM |  |  |  |
| Diammonium [(1S,6S,8R,9R,10S,15S,17R,18R)-8-(2-amino-6-oxo-6,9-dihydro-1H-purin-9-yl)-17-(6-amino-9H-purin-9-yl)-9,18-dihydroxy-3,12-dioxo-12-sulfanidyl-4,7,13,16-tetraoxa-2,11-diaza-3λ^s,12λ^s-diphosphatricyclo[13.3.0.0^6,10]octadecan-3-yl]sulfanide [Compound 72-0A3] | 1 to 10 µM | < 1 µM |  |  |  |
| Diammonium [(1S,6S,8R,9R,10S,15S,17R,18R)-8-(2-amino-6-oxo-6,9-dihydro-1H-purin-9-yl)-17-(6-amino-9H-purin-9-yl)-9,18-dihydroxy-3,12-dioxo-12-sulfanidyl-4,7,13,16-tetraoxa-2,11-diaza-3λ^s,12λ^s-diphosphatricyclo[13.3.0.0^6,10]octadecan-3-yl]sulfanide [Compound 72-0B1] | 1 to 10 µM | 50 to 100 µM |  |  |  |
| Diammonium [(1S,6S,8R,9R,10S,15S,17R,18R)-8-(2-amino-6-oxo-6,9-dihydro-1H-purin-9-yl)-17-(6-amino-9H-purin-9-yl)-9,18-dihydroxy-3,12-dioxo-12-sulfanidyl-4,7,13,16-tetraoxa-2,11-diaza-3λ^s,12λ^s-diphosphatricyclo[13.3.0.0^6,10]octadecan-3-yl]sulfanide [Compound 72-0B2] | 10 to 49 µM | 10 to 49 µM |  |  |  |

— patent publication US10961270B2, “Compounds and compositions for treating conditions associated with sting activity” (Innate Tumor Immunity, Inc., priority 2016, dated 2021)
